{"source": "paper PMC12122756", "about": "“Versatile biocatalyst: lipase from Streptomyces gobitricini for ester synthesis and detergent innovation” (Frontiers in Bioengineering and Biotechnology, 2025)", "system": "T1, LipS.g", "T1 construct": "native extracellular enzyme purified from culture supernatant (heat, ammonium sulfate, Sephadex S-200); about 50 kDa SDS-PAGE, 53,262 Da MALDI-TOF", "experiment": "pH-stat titrimetry, Lineweaver-Burk", "assay_type": "biochemical, Streptomyces gobitricini", "details": "pH 9.0, 50°C, triglyceride emulsion, apparent Km", "source_text": "pH-stat titrimetry, Lineweaver-Burk on LipS.g", "note": "Like-named read-outs stand apart in the source and are kept apart here."}
{"smiles": "CCCC(=O)OCC(COC(=O)CCC)OC(=O)CCC", "note": "[TC4, Tributyrin]", "values": [{"measurement": "Km", "setting": "read-out: Lipase activity (%) / TC4", "value": "26.7 ± 0.063", "unit": "mM"}]}
{"smiles": "CCCCCCCC(=O)OCC(COC(=O)CCCCCCC)OC(=O)CCCCCCC", "note": "[TC8, trioctanoin]", "values": [{"measurement": "Km", "setting": "read-out: TC8", "value": "13.22 ± 0.106", "unit": "mM"}]}
{"smiles": "CCCCCCCC/C=C\\CCCCCCCC(=O)OCC(COC(=O)CCCCCCC/C=C\\CCCCCCCC)OC(=O)CCCCCCC/C=C\\CCCCCCCC", "note": "[TC18, triolein]", "values": [{"measurement": "Km", "setting": "read-out: TC18", "value": "6.45 ± 0.289", "unit": "mM"}]}
